# Values quoted from earlier work in patent US11723919B2, “Composition or combination comprising anionic dietary supplement and 25-hydroxy vitamin D” (Phibro Animal Health Corporation, priority 2020, dated 2023).
# System: dairy cows
# Settings: administration pre- or post-calving; Guo et al. 2018
smiles,measurement,value
"C=C1CC[C@H](O)C/C1=C/C=C1\CCC[C@]2(C)[C@@H]([C@H](C)CCCC(C)(C)O)CC[C@@H]12 [25-hydroxy vitamin D, 25-hydroxy vitamin D3]",effect on milk yield,no effect
